PubChem BioAssay (NCI)
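Interpolation was linear, between the two tested concentrations surrounding the appropriate level; five concentrations were tested over 48 hours in 96-well plates. Here, GI50 denotes the concentration required for 50% inhibition of growth. TGI denotes the concentration required for complete inhibition of growth.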

Tests used:
Test in all cases: NCI tumour cell line growth inhibition, 48 h
HCT-116 colon = tested on: HCT-116 colon
SK-OV-3 ovarian = tested on: SK-OV-3 ovarian
COLO 205 colon = tested on: COLO 205 colon
786-0 renal = tested on: 786-0 renal
SN12C renal = tested on: SN12C renal
OVCAR-5 ovarian = tested on: OVCAR-5 ovarian
RPMI-8226 leukemia = tested on: RPMI-8226 leukemia
ACHN renal = tested on: ACHN renal
MOLT-4 leukemia = tested on: MOLT-4 leukemia
NCI-H23 lung = tested on: NCI-H23 lung

Compound	TGI (HCT-116 colon) [µM]	TGI (SK-OV-3 ovarian) [µM]	TGI (COLO 205 colon) [µM]	TGI (786-0 renal) [µM]	TGI (SN12C renal) [µM]	TGI (OVCAR-5 ovarian) [µM]	TGI (RPMI-8226 leukemia) [µM]	TGI (ACHN renal) [µM]	TGI (MOLT-4 leukemia) [µM]	TGI (NCI-H23 lung) [µM]	GI50 (HCT-116 colon) [µM]	GI50 (SK-OV-3 ovarian) [µM]	GI50 (COLO 205 colon) [µM]	GI50 (786-0 renal) [µM]	GI50 (SN12C renal) [µM]	GI50 (OVCAR-5 ovarian) [µM]	GI50 (RPMI-8226 leukemia) [µM]	GI50 (ACHN renal) [µM]	GI50 (MOLT-4 leukemia) [µM]	GI50 (NCI-H23 lung) [µM]
C/C(N=NC(=S)N(C)C)=C1\C=CC=CN1O	> 100	> 100	> 100	> 52.2	> 100	> 100	> 70.4	> 100	> 56.4	> 100										
O=C(NCO)NCOCn1c(=O)n(CO)c(=O)n(CO)c1=O	96.2	> 100	> 71.8	> 100	> 100	> 100	68.4	> 100	> 65.9	36.3										
C=C1C(=O)OC2/C=C(\COC(C)=O)CCC(OC(C)=O)C3=CC(OC3=O)C12 (stereo not given)	6.85	28.4	6.54	20.9	18.9	33.3	> 100	9.13	5.74	20.7										
O=C1CCCC[C@H]1[C@H]1CCC[C@@H]([C@H]2CCCCC2=O)C1=O	> 100	> 100	> 100	> 100	> 100	> 100	> 100	> 100	> 100	> 100										
C=C1CCC(CC[C@@H]2CC[C@]3(OC2)O[C@@]2(O)CC[C@]3(C)OC2(C)C)C(C)(C)[C@H]1C/C=C1/C(=O)OC[C@@H]1O (stereo not given in full)	4.89	16.6	16.3	7.78	8.03	6.65	> 25.1	6.89	5.45	5.2										
Br[C](Br)(Br)[Hg][c]1ccccc1	47.9	33.1	16.2	30.2	29.7	28.8	70.6	30.8	35.2	23	19.7	19	4.55	16.2	16.2	15.4	18.9	17.1	3.66	9.3
O=S(=O)(Nc1cc(Sc2cccc3cccnc23)c(O)c2ccccc12)c1ccccc1	2.8	17.9	3.7	10.7	3.6	11	7.9	5.54	5.53	12.8	0.555	4.3	1.71	0.79	0.798	1.99	2.38	0.772	0.546	1.93
CCCCON(OC(=O)c1ccc2ccc3cccc4ccc1c2c34)C(C)=O	52.3	> 100	98.9	38.2	39.2	92	80.4	51.6	37.2	35.5	22.4	40.1	24.9	19.6	19.6	23.2	25.5	21.7	17.4	17
O=C(O)C1C(Br)(c2ccccc2)C1(Br)c1ccccc1 (stereo not given)	> 100	81	37.8	> 100	> 100	> 100	74.1	57	> 100	> 100										
S=C1OC2CCCC[C@H]2O1 (stereo not given in full)	> 100	> 100	> 100	> 100	> 100	> 100	> 100	> 100	> 100	> 100										
ClCC[N+]12CC[N+](CCCl)(CC1)C2	> 100	> 100	> 100	> 100	> 100	> 100	> 100	> 100	> 100	> 100										
CCOC(=O)NC(=O)c1cn(CCCOC(=O)CCCCCCCCCCC(=O)OCCCn2cc(C(=O)NC(=O)OCC)c(=O)[nH]c2=O)c(=O)[nH]c1=O	> 100	> 100	> 100	> 100	> 100	> 100	> 100	> 100	> 100	> 100										
C[C@H](O)C(=O)N1CCC(CCn2c(Sc3cc4c(cc3Br)OCO4)nc3c(N)ncnc32)CC1	> 100	> 100	> 100	> 100	> 100	> 100	> 100	> 100	11.8	> 100	0.461	0.48	0.467	3.77	0.725	2.74	4.19	0.84	0.55	0.689
